# Several values for one entry are separate records, joined by “and”; a condition that tells them apart may be missing. Equal entries are not always repeated. Inconclusive results and toxic doses are left out.
# Tested on: P388 leukemia ip, CD2F1 mice, survival T/C
# Experiment: NCI In Vivo Anticancer Drug Screen. Data for tumor model P388 Leukemia (intraperitoneal) in CD2F1 (CDF1) mice
# Conditions: endpoint: median survival time, higher = longer survival
# In short: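 Mice carrying the transplanted tumor received test compound or vehicle. Survival was recorded in each group, and the value is the treated-group measurement divided by that of the vehicle-treated control group.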
# [1] = dose: 12.5 mg/kg/injection, schedule: Q01DX009 (ip), vehicle: saline with Tween-80
# [2] = dose: 50.0 mg/kg/injection, schedule: Q01DX009 (ip), vehicle: saline with Tween-80
# [3] = dose: 60.0 mg/kg/injection, schedule: Q01DX005 (ip), vehicle: saline with Tween-80
# [4] = dose: 100.0 mg/kg/injection, schedule: Q04DX003 (ip), vehicle: Klucel (hydroxypropylcellulose) (HPC)
# [5] = dose: 50.0 mg/kg/injection, schedule: Q01DX005 (ip), vehicle: Klucel (hydroxypropylcellulose) (HPC)
# [6] = dose: 100.0 mg/kg/injection, schedule: Q01DX005 (ip), vehicle: Klucel (hydroxypropylcellulose) (HPC)
# [7] = dose: 200.0 mg/kg/injection, schedule: Q01DX005 (ip), vehicle: Klucel (hydroxypropylcellulose) (HPC)
# [8] = dose: 120.0 mg/kg/injection, schedule: Q01DX005 (ip), vehicle: saline with Tween-80
# [9] = dose: 240.0 mg/kg/injection, schedule: Q01DX005 (ip), vehicle: saline with Tween-80
compound,measurement,setting,value
CCCCOP(O)(=S)OCCCC.[Fe],T/C,"dose: 50.0 mg/kg/injection, schedule: Q01DX001 (ip), vehicle: Klucel (hydroxypropylcellulose) (HPC)",102 % of control
same,T/C,"dose: 100.0 mg/kg/injection, schedule: Q01DX001 (ip), vehicle: Klucel (hydroxypropylcellulose) (HPC)",102 % of control
same,T/C,"dose: 200.0 mg/kg/injection, schedule: Q01DX001 (ip), vehicle: Klucel (hydroxypropylcellulose) (HPC)",101 % of control
NNc1cccc(C(F)(F)F)c1,T/C,[1],100 % of control
same,T/C,"dose: 25.0 mg/kg/injection, schedule: Q01DX009 (ip), vehicle: saline with Tween-80",90 % of control
same,T/C,"dose: 25.0 mg/kg/injection, schedule: Q04DX003 (ip), vehicle: saline with Tween-80",100 % of control
same,T/C,[2],95 % of control
same,T/C,"dose: 50.0 mg/kg/injection, schedule: Q04DX003 (ip), vehicle: saline with Tween-80",105 % of control
same,T/C,"dose: 100.0 mg/kg/injection, schedule: Q04DX003 (ip), vehicle: saline with Tween-80",100 % of control
CC(=O)OCC1OC(OC(C)=O)C(N(CCCl)CCCl)C(OC(C)=O)C1OC(C)=O (centres undefined),T/C,"dose: 0.31 mg/kg/injection, schedule: Q01DX005 (ip), vehicle: water",151 % of control
same,T/C,"dose: 0.62 mg/kg/injection, schedule: Q01DX005 (ip), vehicle: water",151 % of control
same,T/C,"dose: 1.25 mg/kg/injection, schedule: Q01DX005 (ip), vehicle: distilled water + Tween-80",181 % of control
same,T/C,"dose: 1.25 mg/kg/injection, schedule: Q01DX005 (ip), vehicle: water",177 % of control
same,T/C,"dose: 2.5 mg/kg/injection, schedule: Q01DX005 (ip), vehicle: distilled water + Tween-80",216 % of control
same,T/C,"dose: 2.5 mg/kg/injection, schedule: Q01DX005 (ip), vehicle: water",213 % of control
same,T/C,"dose: 5.0 mg/kg/injection, schedule: Q01DX005 (ip), vehicle: water",110 % of control
CC1(C)N=C(N)N=C(N)N1c1ccc(CCCCc2ccc(Cl)cc2Cl)cc1,T/C,"dose: 3.13 mg/kg/injection, schedule: Q01DX009 (ip), vehicle: saline with Tween-80",118 % of control
same,T/C,[1],122 % of control
CCCCCCCN(CCCCCCC)C(=N)c1ccnc2ccccc12,T/C,"dose: 6.25 mg/kg/injection, schedule: Q01DX005 (ip), vehicle: Klucel (hydroxypropylcellulose) (HPC)",101 % of control
same,T/C,"dose: 12.5 mg/kg/injection, schedule: Q01DX005 (ip), vehicle: Klucel (hydroxypropylcellulose) (HPC)",99 % of control
same,T/C,"dose: 25.0 mg/kg/injection, schedule: Q01DX005 (ip), vehicle: Klucel (hydroxypropylcellulose) (HPC)",100 % of control
Cc1sc(C)c2c1C[Se]Cc1c(C)sc(C)c1C[Se]C2,T/C,"dose: 400.0 mg/kg/injection, schedule: Q01DX001 (ip), vehicle: saline with Tween-80",87 % of control
CCOC(=O)C1=C(C#N)C(C(=O)OCC)c2ncccc21 (centres undefined),T/C,"dose: 25.0 mg/kg/injection, schedule: Q01DX009 (ip), vehicle: suspension in saline",93 % of control
same,T/C,"dose: 50.0 mg/kg/injection, schedule: Q01DX009 (ip), vehicle: suspension in saline",93 % of control
same,T/C,"dose: 100.0 mg/kg/injection, schedule: Q01DX009 (ip), vehicle: suspension in saline",100 % of control
same,T/C,"dose: 200.0 mg/kg/injection, schedule: Q01DX009 (ip), vehicle: suspension in saline",92 % of control
C[Si](CNCCN)(c1ccccc1)c1ccccc1,T/C,"dose: 15.0 mg/kg/injection, schedule: Q01DX005 (ip), vehicle: saline with Tween-80",103 % of control
same,T/C,"dose: 30.0 mg/kg/injection, schedule: Q01DX005 (ip), vehicle: saline with Tween-80",102 % of control
same,T/C,[3],96 % of control and 97 % of control
NC1(c2ccccc2)C2CC3CC(C2)CC1C3 (centres undefined),T/C,"dose: 25.0 mg/kg/injection, schedule: Q04DX003 (ip), vehicle: Klucel (hydroxypropylcellulose) (HPC)",101 % of control
same,T/C,"dose: 50.0 mg/kg/injection, schedule: Q04DX003 (ip), vehicle: Klucel (hydroxypropylcellulose) (HPC)",102 % of control
same,T/C,[4],109 % of control
CN1C(=O)c2ccc3c4ccc5c(=O)n6c7ccccc7nc6c6ccc(c7ccc(c2c37)C1=O)c4c56,T/C,[5],102 % of control
same,T/C,[6],105 % of control
same,T/C,[7],97 % of control
O=[N+]([O-])c1ccc(Nc2ccccc2)c2nonc12,T/C,[3],110 % of control
same,T/C,[8],97 % of control
same,T/C,[9],94 % of control
CNC(=O)OCc1c(COC(=O)NC)c(-c2ccc(F)cc2)n(C)c1C,T/C,"dose: 50.0 mg/kg/injection, schedule: Q01DX009 (ip), vehicle: distilled water + Tween-80",91 % of control
O=C(CSC1CCc2ccccc21)NNC(=O)Nc1ccc(Cl)cc1 (centres undefined),T/C,[5],90 % of control
same,T/C,[6],95 % of control
same,T/C,[7],89 % of control
C/C(=N\NC(=S)N1CC2CCC(CC2)C1)c1ccccn1,T/C,"dose: 1.56 mg/kg/injection, schedule: Q01DX009 (ip), vehicle: Klucel (hydroxypropylcellulose) (HPC)",101 % of control and 118 % of control
same,T/C,"dose: 3.12 mg/kg/injection, schedule: Q01DX009 (ip), vehicle: Klucel (hydroxypropylcellulose) (HPC)",107 % of control
same,T/C,"dose: 3.13 mg/kg/injection, schedule: Q01DX009 (ip), vehicle: Klucel (hydroxypropylcellulose) (HPC)",120 % of control
same,T/C,"dose: 6.25 mg/kg/injection, schedule: Q01DX009 (ip), vehicle: Klucel (hydroxypropylcellulose) (HPC)",115 % of control and 123 % of control
same,T/C,"dose: 12.5 mg/kg/injection, schedule: Q01DX009 (ip), vehicle: Klucel (hydroxypropylcellulose) (HPC)",115 % of control
COC(=O)c1c(O)c2c(c3c1OC(C)(C)CC3)OC(C)(C)CC2,T/C,"dose: 60.0 mg/kg/injection, schedule: Q01DX005 (ip), vehicle: Klucel (hydroxypropylcellulose) (HPC)",93 % of control
same,T/C,[3],90 % of control
same,T/C,"dose: 120.0 mg/kg/injection, schedule: Q01DX005 (ip), vehicle: Klucel (hydroxypropylcellulose) (HPC)",92 % of control
same,T/C,[8],91 % of control
same,T/C,"dose: 240.0 mg/kg/injection, schedule: Q01DX005 (ip), vehicle: Klucel (hydroxypropylcellulose) (HPC)",90 % of control
Cc1cnc(C)n2c(C)nnc12,T/C,"dose: 100.0 mg/kg/injection, schedule: Q04DX003 (ip), vehicle: saline",99 % of control
same,T/C,"dose: 200.0 mg/kg/injection, schedule: Q04DX003 (ip), vehicle: saline",96 % of control
Cc1cc2c(C#N)c3ccccc3c(=O)n2c2ccccc12,T/C,[5],98 % of control
same,T/C,[6],96 % of control
same,T/C,[7],100 % of control
COc1cc2c(C)c[n+]3cc4cc5c(OC)c(OC)ccc5cc4cc3c2cc1OC (tested in a mixture with another compound),T/C,"dose: 3.13 mg/kg/injection, schedule: Q04DX003 (ip), vehicle: distilled water + Tween-80",117 % of control
same,T/C,"dose: 6.25 mg/kg/injection, schedule: Q04DX003 (ip), vehicle: distilled water + Tween-80",117 % of control
same,T/C,"dose: 12.5 mg/kg/injection, schedule: Q04DX003 (ip), vehicle: distilled water + Tween-80",111 % of control
same,T/C,"dose: 25.0 mg/kg/injection, schedule: Q04DX003 (ip), vehicle: distilled water + Tween-80",99 % of control
CC1(C)C=Cc2c(ccc3c(=O)c(-c4ccccc4)coc23)O1,T/C,[3],94 % of control
same,T/C,[8],98 % of control
same,T/C,[9],93 % of control
Nc1nc2ccc(CO)nc2c(=O)[nH]1,T/C,"dose: 50.0 mg/kg/injection, schedule: Q01DX005 (ip), vehicle: saline with Tween-80",98 % of control
same,T/C,"dose: 100.0 mg/kg/injection, schedule: Q01DX005 (ip), vehicle: saline with Tween-80",106 % of control
same,T/C,"dose: 200.0 mg/kg/injection, schedule: Q01DX005 (ip), vehicle: saline with Tween-80",101 % of control
CN(C)S(=O)(=O)Nc1cccc(Br)c1,T/C,[2],103 % of control
same,T/C,"dose: 100.0 mg/kg/injection, schedule: Q01DX009 (ip), vehicle: saline with Tween-80",102 % of control
same,T/C,"dose: 200.0 mg/kg/injection, schedule: Q01DX009 (ip), vehicle: saline with Tween-80",106 % of control
CCCC(C)/C=C(\C)C(O)C(C)/C=C/CCC(O)C(C)C(O)C(C)C(O)C(C)C1OC(C(C)C(=O)OC)CCC1C (centres undefined),T/C,"dose: 12.5 mg/kg/injection, schedule: Q01DX005 (ip), vehicle: dimethyl formamide",111 % of control
same,T/C,"dose: 25.0 mg/kg/injection, schedule: Q01DX005 (ip), vehicle: dimethyl formamide",108 % of control
same,T/C,"dose: 50.0 mg/kg/injection, schedule: Q01DX005 (ip), vehicle: dimethyl formamide",102 % of control
CC(=O)C1CO1 (centres undefined),T/C,"dose: 12.5 mg/kg/injection, schedule: Q01DX005 (ip), vehicle: saline",105 % of control
same,T/C,"dose: 25.0 mg/kg/injection, schedule: Q01DX005 (ip), vehicle: saline",107 % of control
same,T/C,"dose: 50.0 mg/kg/injection, schedule: Q01DX005 (ip), vehicle: saline",110 % of control and 116 % of control
O=C1OCCOCCOCCOCCOCCOCCOC(=O)c2cccc1n2,T/C,[4],100 % of control
same,T/C,"dose: 200.0 mg/kg/injection, schedule: Q04DX003 (ip), vehicle: Klucel (hydroxypropylcellulose) (HPC)",100 % of control
same,T/C,"dose: 400.0 mg/kg/injection, schedule: Q04DX003 (ip), vehicle: Klucel (hydroxypropylcellulose) (HPC)",100 % of control

# From PubChem BioAssay AID330 (DTP/NCI, 2004)
